Data from patent publication US20240027428A1, “METHOD FOR BUILDING CO-CULTURE MODEL FOR CACO-2/RAW-264.7 CELLS INDUCED BY LIPOPOLYSACCHARIDES AND APPLICATION OF CO-CULTURE MODEL” (ZHEJIANG UNIVERSITY OF TECHNOLOGY, priority 2022, published 2024).

What was measured:
[1] = test system: Caco-2 cells; assay: Effect of time on uptake in a co-culture model; type: in vitro ADME; conditions: 0.2 mg/mL, 0-6 h
Protocol: (§1) Cell co-culture: Caco-2 cells were inoculated onto a 6-well Transwell plate at a density of 1×10^5 cells/well. A culture medium was changed once every 1-2 days in 21 consecutive days. RAW-264.7 cells were inoculated onto a side wall of a substrate at a density of 1×10^5 cells/well, and were cultured in 5% carbon dioxide at 37° C. for 48 h, to promote obvious adhesion of the cells to the side wall of the substrate. After 48 h, the culture medium was replaced with a serum-free DMEM. It was intended to evaluate the absorption of C3G liposomes in a co-culture model.
Effect of time on uptake in a co-culture model: 0.2 mg/mL of a C3G and C3G NL solution was prepared with a DMEM, 0.1 ml of a sample solution was added on an AP side, 0.6 mL of a DMEM was added on an BL side, culture was performed in an incubator at 37° C. for 1 h, 2 h, 3 h, 4 h, 5 h, and 6 h, three wells were provided at each time point, a drug-containing buffer solution was discarded after incubation, precooled PBS was added to stop cellular uptake, and cell monolayers were quickly washed for three times. […] A cell suspension was dissolved with methanol and centrifuged at 15,000 rpm for 20 min, then a supernatant was taken, and the content of C3G was determined with HPLC.

[2] = test system: Caco-2 cells; assay: Effect of concentration on transport in a co-culture model; type: in vitro ADME; conditions: at 1 h; not saturated
Protocol: as §1
Effect of concentration on uptake in a co-culture model: 0.02 mg/ml, 0.04 mg/ml, […], 0.08 mg/ml, and 0.1 mg/ml of C3G and C3G NL solutions were prepared, transport from an AP side to a BL side and transport from the BL side to the AP side were evaluated, 0.1 ml of a sample was added on the AP side, 0.6 ml of a sample was added on the BL side, three wells were provided, […], a culture medium was discarded after culture, and uptake was stopped using an HBSS. The content of the sample on the BL side was determined with HPLC.

[3] = test system: Caco-2 cells; assay: CCK-8 cytotoxicity test, viability of Caco-2 cells; type: cell-based; conditions: Caco-2, 24 h, 0.2 mg/mL and below (P>0.05)
Protocol: Cytotoxicity tests: according to manufacturer's instructions, cell viability was determined with a CCK-8 (Nanjing Jiancheng Biological Engineering Research Institute, Nanjing, China). In short, Caco-2 cells were treated with [MUT] liposomes at concentrations of 0.1 mg/mL, 0.2 mg/mL, 0.3 mg/mL, and 0.4 mg/mL, incubated for 24 h, then washed with PBS once, and added with a CCK-8 solution. Incubation was performed at 37° C. for 4 h, and an optical density at 450 nm was determined. […] NL and [MUT] on the viability of Caco-2 cells were inspected with a CCK-8 method. The Caco-2 cells were inoculated onto a 96-well plate having each well of 100 μL at a density of 1×10^5 cells/mL, and 200 μL of PBS was added to a peripheral well of the 96-well plate, to provide a humidity environment. […] After incubation for 24 h, 20 μL of a CCK-8 solution was added to each well, incubation was performed in an incubator at 37° C. for 1 h, and then an optical density (OD) at a wavelength of 490 nm was detected with a microplate reader and was calculated according to the following formula: Cell viability (%)=ODtreatment well/ODcontrol well×100% where the ODtreatment well represented an optical density of cells after addition of drugs, and the ODcontrol well represented an optical density of cells in a blank control.

[4] = test system: Caco-2 cells; assay: Effect of an endocytosis inhibitor on uptake/transport in a co-culture model; type: in vitro ADME; conditions: β-CD, chlorpromazine (CPZ), cytochalasin D (P>0.05)
Protocol: as §1
Effect of an endocytosis inhibitor on uptake in a co-culture model: 0.2 mg/mL of a C3G and C3G NL solution was prepared with an HBSS, 0.1 ml of a sample solution was added on an AP side, 0.6 mL of an HBSS was added on a BL side, an MEM, 10 mmol/L ([…]) of β-CD,10 μg/mL of chlorpromazine, 2 μmol/L (1 μg/ml) of cytochalasin D (0.1 ml) were added and sucked out after 30 min, cells were cultured in an environment at 37° C. for 1 h, three wells were provided, a culture medium was discarded after culture, and uptake was stopped using an HBSS. The content of a sample was determined with HPLC, and Papp was calculated.

[5] = test system: Caco-2 cells; assay: Effect of temperature on uptake in a co-culture model; type: in vitro ADME; conditions: 4° C. to 37° C. (P<0.0001)
Protocol: as §1
Effect of temperature on uptake in a co-culture model: 0.2 mg/mL of a C3G and C3G NL solution was prepared with an HBSS, 0.1 ml of a sample solution was added on an AP side, 0.6 mL of an HBSS was added on an BL side, cells were cultured in environments at 37° C. and 4° C. for 2 h, three wells were provided at each temperature, a culture medium was discarded after culture, and uptake was stopped using an HBSS. The content of a sample on the BL side was determined with HPLC.

[6] = test system: inflammatory factors IL-6, IL-8, IL-1β, and TNF-α; assay: Content of inflammatory factors in LPS-induced Caco-2/RAW-264.7 co-culture model (ELISA); type: cell-based
Protocol: as §1
Determination of the content of inflammatory factors in a co-culture model: levels of inflammatory factors IL-6, IL-8, IL-1β, and TNF-α in a supernatant of Caco-2 cells in an LPS-induced co-culture model were determined with an ELISA kit.

[7] = test system: Caco-2 cells; assay: Transport tests for Lucifer yellow across Caco-2 monolayer in Transwell; type: in vitro ADME; conditions: 20 μg/mL Lucifer yellow, AP to BL, Caco-2 cultured 21 days
Protocol: Drawing of a standard curve for Lucifer yellow: 0.005 μg/mL, 0.01 μg/mL, 0.025 μg/mL, 0.05 μg/mL, 0.1 μg/mL, and 0.25 μg/mL of standard solutions for Lucifer yellow were prepared, the fluorescence intensities (an excitation wavelength: 427 nm, and an emission wavelength: 536 nm) of the standard solutions for Lucifer yellow were measured with a fluorescence spectrophotometer, and linear regression was performed with the fluorescence intensity as an ordinate and the concentration ([…]) as an abscissa. A standard curve was drawn.
Transport tests for Lucifer yellow: Caco-2 cells grew to 21 days in a Transwell, and then a culture medium was sucked and discarded. A preheated HBSS was added to both an AP side and a BL side for cleaning twice and was sucked and discarded, and then a preheated HBSS was added to perform culture under the conditions of 37° C. and 5% CO2 for 20 min. […] Under the condition of Ex=427 nm and Em=536 nm, the fluorescence intensity was measured according to a standard curve and a transport formula. A concentration and permeability coefficient of a transport solution for the Lucifer yellow CH on the BL side were calculated. […]

| time of maximum uptake amount in Caco-2 cells [1] [h] | transport amounts after addition of endocytosis inhibitor compared with blank group [4] | uptake amounts in Caco-2 cells with increase of temperature [5] | Papp (apparent permeability coefficient) [7] [×10⁻⁶ cm/s] | Compound | transport amounts in Caco-2 cells with concentration [2] | change of cell viability compared with blank group [3] | production of inflammatory factors after pretreatment [6] |
| --- | --- | --- | --- | --- | --- | --- | --- |
| 2 | no significant changes | increased significantly |  | OC[C@H]1O[C@@H](Oc2cc3c(O)cc(O)cc3[o+]c2-c2ccc(O)c(O)c2)[C@H](O)[C@@H](O)[C@@H]1O [C3G, Cyanidin-3-glucoside] | increased with the increase of concentration | did not change significantly | reduced in a dose-dependent manner |
|  |  |  | 0.0303 | Lucifer yellow |  |  |  |
